Test results from PubChem BioAssay AID2060512 (Molecular Pharmacology Branch, DTP, NCI, 2025).

Tested on: 186277-243-T-J2-PDC complex spheroid viability
Test: Anticancer human tumor 186277-243-T-J2-PDC patient-derived colon adenocarcinoma cell line growth inhibition [GQUAD]
Conditions: for IC50: curve of first compound; for viability, T/C: stronger effect = lower value
How it was run: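 Viability of tumor cells grown as complex spheroids with endothelial and stromal cells, exposed to drug combinations. Top concentration at or near clinical Cmax (else 10 microM), diluted in half-log increments.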
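Also: spheroids exposed to drugs for 7 days.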
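For viability, T/C in this document: 100% = DMSO vehicle control viability.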

**Q.** `C=CCn1c(=O)c2cnc(Nc3ccc(N4CCN(C)CC4)cc3)nc2n1-c1cccc(C(C)(C)O)n1` + Cc1[nH]c2ccc(F)cc2c1-c1nc2c3cccnc3c3ncccc3c2[nH]1 was tested. Which IC50 (second compound 0.0316 µM) did it give?
**A.** 174 nM

**Q.** What about the IC50 (second compound 0.1 µM) of the same compound?
**A.** 180 nM

**Q.** What about the IC50 (second compound 0.316 µM) of the same compound?
**A.** 179 nM

**Q.** What about the IC50 (second compound 1 µM) of the same compound?
**A.** 179 nM

**Q.** What about the IC50 (second compound 3.16 µM) of the same compound?
**A.** 142 nM

**Q.** And the IC50 (second compound 10 µM)?
**A.** 138 nM

**Q.** And the viability, T/C (second compound 0.0316 µM, first compound 0.0316 µM)?
**A.** 97.9%

**Q.** And the viability, T/C (second compound 0.0316 µM, first compound 0.1 µM)?
**A.** 83.8%

**Q.** What about the viability, T/C (second compound 0.0316 µM, first compound 0.316 µM) of the same compound?
**A.** 13.2%

**Q.** And the viability, T/C (second compound 0.0316 µM, first compound 1 µM)?
**A.** 7.62%

**Q.** And the viability, T/C (second compound 0.0316 µM, first compound 3.16 µM)?
**A.** 8.21%

**Q.** And the viability, T/C (second compound 0.0316 µM, first compound 10 µM)?
**A.** 8.87%

**Q.** What about the viability, T/C (second compound 0.1 µM, first compound 0.0316 µM) of the same compound?
**A.** 112%

**Q.** What about the viability, T/C (second compound 0.1 µM, first compound 0.1 µM) of the same compound?
**A.** 87.8%

**Q.** What about the viability, T/C (second compound 0.1 µM, first compound 0.316 µM) of the same compound?
**A.** 13.6%

**Q.** And the viability, T/C (second compound 0.1 µM, first compound 1 µM)?
**A.** 9.07%

**Q.** And the viability, T/C (second compound 0.1 µM, first compound 3.16 µM)?
**A.** 9.3%

**Q.** What about the viability, T/C (second compound 0.1 µM, first compound 10 µM) of the same compound?
**A.** 9.89%

**Q.** And the viability, T/C (second compound 0.316 µM, first compound 0.0316 µM)?
**A.** 108%

**Q.** And the viability, T/C (second compound 0.316 µM, first compound 0.1 µM)?
**A.** 88%

**Q.** What about the viability, T/C (second compound 0.316 µM, first compound 0.316 µM) of the same compound?
**A.** 12.7%

**Q.** And the viability, T/C (second compound 0.316 µM, first compound 1 µM)?
**A.** 8.61%

**Q.** And the viability, T/C (second compound 0.316 µM, first compound 3.16 µM)?
**A.** 9.09%

**Q.** What about the viability, T/C (second compound 0.316 µM, first compound 10 µM) of the same compound?
**A.** 11.5%

**Q.** What about the viability, T/C (second compound 1 µM, first compound 0.0316 µM) of the same compound?
**A.** 97.1%

**Q.** And the viability, T/C (second compound 1 µM, first compound 0.1 µM)?
**A.** 87.4%

**Q.** What about the viability, T/C (second compound 1 µM, first compound 0.316 µM) of the same compound?
**A.** 13.7%

**Q.** What about the viability, T/C (second compound 1 µM, first compound 1 µM) of the same compound?
**A.** 8.91%

**Q.** And the viability, T/C (second compound 1 µM, first compound 3.16 µM)?
**A.** 9.37%

**Q.** And the viability, T/C (second compound 1 µM, first compound 10 µM)?
**A.** 10.9%

**Q.** And the viability, T/C (second compound 3.16 µM, first compound 0.0316 µM)?
**A.** 96.4%

**Q.** And the viability, T/C (second compound 3.16 µM, first compound 0.1 µM)?
**A.** 67.2%

**Q.** What about the viability, T/C (second compound 3.16 µM, first compound 0.316 µM) of the same compound?
**A.** 11.1%

**Q.** What about the viability, T/C (second compound 3.16 µM, first compound 1 µM) of the same compound?
**A.** 8.17%

**Q.** And the viability, T/C (second compound 3.16 µM, first compound 3.16 µM)?
**A.** 8.58%

**Q.** And the viability, T/C (second compound 3.16 µM, first compound 10 µM)?
**A.** 10.8%

**Q.** And the viability, T/C (second compound 10 µM, first compound 0.0316 µM)?
**A.** 89.9%

**Q.** And the viability, T/C (second compound 10 µM, first compound 0.1 µM)?
**A.** 64.6%

**Q.** What about the viability, T/C (second compound 10 µM, first compound 0.316 µM) of the same compound?
**A.** 12.9%

**Q.** And the viability, T/C (second compound 10 µM, first compound 1 µM)?
**A.** 8.07%

**Q.** What about the viability, T/C (second compound 10 µM, first compound 3.16 µM) of the same compound?
**A.** 8.03%

**Q.** And the viability, T/C (second compound 10 µM, first compound 10 µM)?
**A.** 10.3%
